Where two headings read alike, the source gives them in different places.
Tested on: NCI 60 cancer cell lines
Test: NCI anticancer screening over a panel of 60 cancer cells, single concentration 10 µM
Type: cell-based, human
Details: Homo sapiens, read-out: Growth inhibition (GI %)
Procedure, shortened: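 Run under the NCI Compound Evaluation Branch protocol, each compound was tested once at 10 µM. The panel comprised 60 cancer cell lines of diverse tissue origin, including leukemia, lung, colon, CNS, renal, ovarian, breast and prostate.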

CC(=O)c1cnn(-c2cc(=O)[nH]c3ccc(Br)cc23)c1C [Compound 2e, 4-(4-Acetyl-5-methyl-1H-pyrazol-1-yl)-6-bromoquinolin-2(1H)-one]
inhibition at 10 µM (786-0, Renal cancer 786-0, 10 μM): < 5% | inhibition at 10 µM (A498, Renal cancer A498, 10 μM): < 5% | inhibition at 10 µM (A549, Non-small cell lung cancer A549/ATCC, 10 μM): < 5% | inhibition at 10 µM (ACHN, Renal cancer ACHN, 10 μM): < 5% | inhibition at 10 µM (BT-549, Breast cancer BT-549, 10 μM): < 5% | inhibition at 10 µM (CAKI-1, Renal cancer CAKI-1, 10 μM): 16.5% | inhibition at 10 µM (CCRF-CEM, Leukemia CCRF-CEM, 10 μM): 8.16% | inhibition at 10 µM (COLO 205, Colon cancer COLO 205, 10 μM): < 5% | inhibition at 10 µM (DU-145, Prostate cancer DU-145, 10 μM): < 5% | inhibition at 10 µM (EKVX, Non-small cell lung cancer EKVX, 10 μM): 6.46% | inhibition at 10 µM (HCC 2998, Colon cancer HCC-2998, 10 μM): < 5% | inhibition at 10 µM (HCT-15, Colon cancer HCT-15, 10 μM): < 5% | inhibition at 10 µM (HCT-116, Colon cancer HCT-116, 10 μM): < 5% | inhibition at 10 µM (HL-60, Leukemia HL-60(TB), 10 μM): 12.8% | inhibition at 10 µM (HOP-62, Non-small cell lung cancer HOP-62, 10 μM): 13.6% | inhibition at 10 µM (HOP-92, Non-small cell lung cancer HOP-92, 10 μM): 20.4% | inhibition at 10 µM (HT-29, Colon cancer HT29, 10 μM): 7.95% | inhibition at 10 µM (Hs-578T, Breast cancer HS 578T, 10 μM): 6.91% | inhibition at 10 µM (IGROV-1, Ovarian cancer IGROV1, 10 μM): < 5% | inhibition at 10 µM (K562, Leukemia K-562, 10 μM): < 5% | inhibition at 10 µM (KM12, Colon cancer KM12, 10 μM): < 5% | inhibition at 10 µM (LOX IMVI, Melanoma LOX IMVI, 10 μM): 9.22% | inhibition at 10 µM (Leukemia SR, 10 μM): < 5% | inhibition at 10 µM (MCF7, Breast cancer MCF7, 10 μM): < 5% | inhibition at 10 µM (MDA-MB-231, Breast Cancer MDA-MB 231/ATCC, 10 μM): < 5% | inhibition at 10 µM (MDA-MB-435, Melanoma MDA-MB-435, 10 μM): < 5% | inhibition at 10 µM (MDA-MB-468, Breast cancer MDA-MB-468, 10 μM): < 5% | inhibition at 10 µM (MOLT-4, Leukemia MOLT-4, 10 μM): < 5% | inhibition at 10 µM (Malme-3M, Melanoma MALME-3M, 10 μM): 14% | inhibition at 10 µM (Melanoma M14, 10 μM): < 5% | inhibition at 10 µM (NCI-H23, Non-small cell lung cancer NCI-H23, 10 μM): < 5% | inhibition at 10 µM (NCI-H226, Non-small cell lung cancer NCI-H226, 10 μM): 10.7% | inhibition at 10 µM (NCI-H322M, Non-small cell lung cancer NCI-H322M, 10 μM): < 5% | inhibition at 10 µM (NCI-H460, Non-small cell lung cancer NCI-H460, 10 μM): < 5% | inhibition at 10 µM (NCI-H522, Non-small cell lung cancer NCI-H522, 10 μM): 7.32% | inhibition at 10 µM (NCI/ADR-RES, Ovarian cancer NCI/ADR-RES, 10 μM): < 5% | inhibition at 10 µM (OVCAR-3, Ovarian cancer OVCAR-3, 10 μM): < 5% | inhibition at 10 µM (OVCAR-4, Ovarian cancer OVCAR-4, 10 μM): < 5% | inhibition at 10 µM (OVCAR-5, Ovarian cancer OVCAR-5, 10 μM): < 5% | inhibition at 10 µM (OVCAR-8, Ovarian cancer OVCAR-8, 10 μM): < 5% | inhibition at 10 µM (Prostate cancer PC-3, 10 μM): 13.3% | inhibition at 10 µM (RPMI-8226, Leukemia RPMI-8226, 10 μM): 9.34% | inhibition at 10 µM (RXF 393, Renal cancer RXF 393, 10 μM): < 5% | inhibition at 10 µM (SF-268, CNS Cancer SF-268, 10 μM): < 5% | inhibition at 10 µM (SF-295, CNS Cancer SF-295, 10 μM): 6.55% | inhibition at 10 µM (SF-539, CNS Cancer SF-539, 10 μM): 7.46% | inhibition at 10 µM (SK-MEL-2, Melanoma SK-MEL-2, 10 μM): < 5% | inhibition at 10 µM (SK-MEL-5, Melanoma SK-MEL-5, 10 μM): < 5% | inhibition at 10 µM (SK-MEL-28, Melanoma SK-MEL-28, 10 μM): < 5% | inhibition at 10 µM (SK-OV-3, Ovarian cancer SK-OV-3, 10 μM): < 5% | inhibition at 10 µM (SN12C, Renal cancer SN12C, 10 μM): 6.46% | inhibition at 10 µM (SNB-19, CNS Cancer SNB-19, 10 μM): 5.52% | inhibition at 10 µM (SNB-75, CNS Cancer SNB-75, 10 μM): 15.6% | inhibition at 10 µM (SW-620, Colon cancer SW-620, 10 μM): < 5% | inhibition at 10 µM (T47D, Breast cancer T-47D, 10 μM): 12.2% | inhibition at 10 µM (TK-10, Renal cancer TK-10, 10 μM): < 5% | inhibition at 10 µM (U-251, CNS Cancer U251, 10 μM): < 5% | inhibition at 10 µM (UACC-62, Melanoma UACC-62, 10 μM): < 5% | inhibition at 10 µM (UACC-257, Melanoma UACC-257, 10 μM): < 5% | inhibition at 10 µM (UO-31, Renal cancer UO-31, 10 μM): 37.4%

Source: paper PMC12638379, “An innovative approach to development of new pyrazolylquinolin-2-one hybrids as dual EGFR and BRAF^V600E inhibitors” (Molecular Diversity, 2025)
